Experimental data reported in ChEMBL document CHEMBL1201862, “PubChem BioAssay data set” (2004).
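All cell lines were grown in 96-well plates and treated with compound for 48 hours. The concentration for 50% growth inhibition is given as GI50.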 Active and inactive are the calls of the source. Cut-off read from the data, not from the text of the source: active = GI50 up to about 1.1 µM and inactive = higher.

Columns and labels:
Test in all cases: inhibition of tumour cell growth, NCI panel, 48 h
SW-620 = system: SW-620
RXF 393 = system: RXF 393
CAKI-1 = system: CAKI-1
T47D = system: T47D
LOX IMVI = system: LOX IMVI
SK-MEL-2 = system: SK-MEL-2
HCC 2998 = system: HCC 2998
EKVX = system: EKVX
U-251 = system: U-251
HOP-92 = system: HOP-92
M14 = system: M14
UACC-257 = system: UACC-257
NCI-H460 = system: NCI-H460
Malme-3M = system: Malme-3M
DU-145 = system: DU-145
MDA-MB-231 = system: MDA-MB-231
SK-OV-3 = system: SK-OV-3
K562 = system: K562
SF-295 = system: SF-295
SF-268 = system: SF-268
TK-10 = system: TK-10
NCI/ADR-RES = system: NCI/ADR-RES
NCI-H226 = system: NCI-H226
MCF7 = system: MCF7
MDA-MB-435 = system: MDA-MB-435
PC-3 = system: PC-3
A498 = system: A498
SK-MEL-28 = system: SK-MEL-28
UO-31 = system: UO-31
HOP-62 = system: HOP-62
COLO 205 = system: COLO 205
HL-60 = system: HL-60
BT-549 = system: BT-549
Hs-578T = system: Hs-578T
A549 = system: A549
HCT-116 = system: HCT-116
SK-MEL-5 = system: SK-MEL-5
OVCAR-3 = system: OVCAR-3
HT-29 = system: HT-29
786-0 = system: 786-0
NCI-H23 = system: NCI-H23
MOLT-4 = system: MOLT-4
OVCAR-5 = system: OVCAR-5
MDA-N = system: MDA-N
NCI-H522 = system: NCI-H522
ACHN = system: ACHN
UACC-62 = system: UACC-62
HCT-15 = system: HCT-15
OVCAR-8 = system: OVCAR-8
IGROV-1 = system: IGROV-1
SF-539 = system: SF-539
CCRF-CEM = system: CCRF-CEM
SN12C = system: SN12C
RPMI-8226 = system: RPMI-8226
SNB-75 = system: SNB-75
OVCAR-4 = system: OVCAR-4
SR = system: SR
KM12 = system: KM12
SNB-19 = system: SNB-19

Measured: GI50

Cc1cc(SCC(=O)c2ccc(Br)cc2)cc(C)[o+]1
32.1 µM: HCT-15
inactive: SW-620 34 µM | RXF 393 28.6 µM | CAKI-1 35.9 µM | T47D 19.8 µM | LOX IMVI 32.1 µM | SK-MEL-2 30.8 µM | HCC 2998 25.2 µM | EKVX 12.4 µM | U-251 30.1 µM | HOP-92 22.7 µM | M14 26.5 µM | UACC-257 25.1 µM | NCI-H460 25.5 µM | Malme-3M 30.9 µM | DU-145 29.5 µM | MDA-MB-231 36.6 µM | SK-OV-3 60 µM | K562 24.9 µM | SF-295 26.6 µM | SF-268 47.6 µM | TK-10 35.1 µM | NCI/ADR-RES 29.8 µM | NCI-H226 31.3 µM | MCF7 19.3 µM | MDA-MB-435 21.3 µM | PC-3 29.4 µM | A498 27.3 µM | SK-MEL-28 13.8 µM | UO-31 26.6 µM | HOP-62 36.8 µM | COLO 205 31.9 µM | HL-60 13.5 µM | BT-549 39.7 µM | Hs-578T 47.6 µM | A549 31.7 µM | HCT-116 23.8 µM | SK-MEL-5 18 µM | OVCAR-3 21.4 µM | HT-29 25.1 µM | 786-0 33.5 µM | NCI-H23 31.6 µM | MOLT-4 17.4 µM | OVCAR-5 20.6 µM | MDA-N 30.6 µM | NCI-H522 21.6 µM | ACHN 31.2 µM | UACC-62 31.4 µM | OVCAR-8 32.4 µM | IGROV-1 37.4 µM | SF-539 23 µM | CCRF-CEM 16 µM | SN12C 39 µM | RPMI-8226 21.7 µM | SNB-75 20.3 µM | OVCAR-4 24.9 µM | SR 22.8 µM | KM12 24.4 µM | SNB-19 36.7 µM

O=[As](O)(O)c1ccc(Cc2ccc([As](=O)(O)O)cc2)cc1
1.17 µM: HCT-15
active: SW-620 0.27 µM | RXF 393 0.413 µM | CAKI-1 0.955 µM | T47D 0.312 µM | LOX IMVI 0.336 µM | U-251 0.371 µM | M14 1.06 µM | UACC-257 0.499 µM | NCI-H460 0.91 µM | DU-145 0.336 µM | MDA-MB-231 1.01 µM | K562 0.265 µM | SF-268 0.434 µM | TK-10 0.547 µM | MCF7 0.284 µM | MDA-MB-435 0.577 µM | PC-3 0.546 µM | COLO 205 0.617 µM | HL-60 1.09 µM | HCT-116 0.895 µM | SK-MEL-5 0.632 µM | OVCAR-3 0.839 µM | HT-29 0.778 µM | 786-0 0.356 µM | NCI-H23 0.773 µM | MOLT-4 0.457 µM | MDA-N 0.421 µM | NCI-H522 0.419 µM | ACHN 1.03 µM | OVCAR-8 0.358 µM | IGROV-1 0.692 µM | SF-539 0.193 µM | CCRF-CEM 0.0813 µM | SN12C 0.64 µM | RPMI-8226 0.284 µM | SR 0.269 µM
inactive: SK-MEL-2 1.35 µM | HCC 2998 1.91 µM | EKVX 1.13 µM | HOP-92 1.5 µM | Malme-3M 1.2 µM | SK-OV-3 2.15 µM | SF-295 2.78 µM | NCI/ADR-RES 1.48 µM | NCI-H226 3.78 µM | A498 2.12 µM | SK-MEL-28 1.32 µM | UO-31 1.24 µM | HOP-62 1.31 µM | BT-549 1.18 µM | Hs-578T 1.33 µM | A549 1.81 µM | OVCAR-5 2.34 µM | UACC-62 1.28 µM | SNB-75 1.34 µM | OVCAR-4 1.9 µM | KM12 1.91 µM | SNB-19 1.15 µM
